Usually Kd stands for a measure of binding affinity in units of concentration.

For 2 molecules, Kd and solubility in assay results are on record in PMC3825844 (Analytical biochemistry, 2013).

The subject of data set [1] is PXR-SRC (steroid receptor coactivator) tethered protein. The following applies: read-out: hypothetical Kd, circular dichroism; cited from earlier work. (In general: Circular dichroism is widely used to follow secondary structure.)
Data set [2] deals with PXR protein (without SRC). The following applies: affinity selection-mass spectrometry; cited from earlier work.
Data set [3] can be described thus: Solubility observed in TR-FRET assay dilution series. The class given is physicochemical. The following applies: at 100 μM, TR-FRET assay buffer, […] DMSO. For orientation: In TR-FRET formats the signal depends on donor and acceptor labels being close together.

The structures appear in SMILES notation.

Consider `CO[C@H]1/C=C/O[C@@]2(C)Oc3c(C)c(O)c4c(O)c(c(/C=N/N5CCN(C)CC5)c(O)c4c3C2=O)NC(=O)/C(C)=C\C=C\[C@H](C)[C@H](O)[C@@H](C)[C@@H](O)[C@@H](C)[C@H](OC(C)=O)[C@@H]1C` [Rifampicin, 3-(4-methylpiperazinyliminomethyl)rifamycin SV], for which the Kd in data set [1] is 0.54 µM; in data set [2], […].

Regarding `Clc1ccccc1C(c1ccccc1)(c1ccccc1)n1ccnc1` [Clotrimazole, 1-[(2-chlorophenyl)diphenylmethyl]-1H-imidazole], the Kd in data set [1] was 0.29 µM; in data set [2] it was 0.33 µM. Moreover, in data set [3], the solubility in assay result is recorded as “incomplete solubility”.
